Structures are written as SMILES.

The target of the first experiment is T1, Kinesin-like protein KIF11 (Homo sapiens, UniProt P52732).
T1 sequence (P52732 whole entry): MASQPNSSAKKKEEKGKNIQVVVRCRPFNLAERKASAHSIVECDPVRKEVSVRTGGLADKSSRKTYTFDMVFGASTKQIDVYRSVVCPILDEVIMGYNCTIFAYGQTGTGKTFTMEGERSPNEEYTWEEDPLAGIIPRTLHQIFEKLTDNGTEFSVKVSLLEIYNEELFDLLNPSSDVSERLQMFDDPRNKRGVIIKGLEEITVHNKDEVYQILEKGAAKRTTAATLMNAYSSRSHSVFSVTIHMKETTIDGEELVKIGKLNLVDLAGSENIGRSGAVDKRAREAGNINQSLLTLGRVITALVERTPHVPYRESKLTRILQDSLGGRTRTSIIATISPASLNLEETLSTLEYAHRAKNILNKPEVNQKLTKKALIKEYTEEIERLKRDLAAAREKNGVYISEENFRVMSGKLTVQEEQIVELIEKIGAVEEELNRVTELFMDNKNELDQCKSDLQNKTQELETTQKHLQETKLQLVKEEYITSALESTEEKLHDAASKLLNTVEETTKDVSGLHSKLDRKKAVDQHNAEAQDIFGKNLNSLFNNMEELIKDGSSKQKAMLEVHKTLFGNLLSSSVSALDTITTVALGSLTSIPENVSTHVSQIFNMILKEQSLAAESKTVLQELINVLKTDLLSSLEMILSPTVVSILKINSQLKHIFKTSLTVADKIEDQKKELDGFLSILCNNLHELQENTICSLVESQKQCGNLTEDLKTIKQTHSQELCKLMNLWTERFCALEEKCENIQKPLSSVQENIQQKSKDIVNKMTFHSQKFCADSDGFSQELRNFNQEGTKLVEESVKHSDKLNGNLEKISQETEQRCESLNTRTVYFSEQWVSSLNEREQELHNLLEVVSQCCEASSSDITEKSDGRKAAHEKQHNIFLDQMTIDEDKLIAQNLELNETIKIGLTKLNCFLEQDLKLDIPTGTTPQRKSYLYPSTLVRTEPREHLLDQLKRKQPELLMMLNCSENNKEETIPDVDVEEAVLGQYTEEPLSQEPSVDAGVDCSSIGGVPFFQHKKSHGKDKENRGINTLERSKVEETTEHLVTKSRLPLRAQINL
In words: Inhibition of basal ATPase activity of N-terminal His6-tagged human Eg5 motor domain (1 to 368 residues) expressed in Escherichia coli BL21 (DE3) by pyruvate kinase-lactate dehydrogenase coupled assay.
In general, IC50 refers to the concentration that gives 50% inhibition. In turn, `CC(=O)NC1=NN(C(C)=O)C(C)(c2cccs2)S1` (centres undefined) had an IC50 of 1700 nM. On the same count and under the same terms, in the case of `CC(=O)NC1=NN(C(C)=O)C(C)(c2cccnc2)S1` (centres undefined) it was 8500 nM; in that of `CC(=O)NC1=NN(C(C)=O)C(C)(c2ccc(Cl)s2)S1` (centres undefined), 950 nM; in that of `CC(=O)NC1=NN(C(C)=O)C(C)(c2ccccc2)S1` (centres undefined), 740 nM. The same measure, in the same setting: in the case of `CC(=O)NC1=NN(C(C)=O)C(C)(c2ccco2)S1` (centres undefined) it was 4300 nM. Still for that read-out and setting: in the case of `CC(=O)NC1=NN(C(C)=O)C(C)(c2ccc3ccccc3c2)S1` (centres undefined) it was 15600 nM; in that of `CC(=O)NC1=NN(C(C)=O)C(C)(c2ccccn2)S1` (centres undefined), 37200 nM. `CC(=O)NC1=NN(C(C)=O)C(c2ccccc2)S1` (centres undefined) came in with an IC50 of 20000 nM. Still for that read-out and setting: in the case of `CCC1(c2ccccc2)SC(NC(C)=O)=NN1C(C)=O` (centres undefined) it was 1460 nM. On the same count and under the same terms, in the case of `CC(=O)NC1=NN(C(C)=O)C(C)(c2ccc(OC(C)=O)cc2)S1` (centres undefined) it was 5100 nM. Still for that read-out and setting: next, `CC(=O)NC1=NN(C(C)=O)C(C)(c2cc(F)ccc2F)S1` (centres undefined): 840 nM. For `CC(=O)NC1=NN(C(C)=O)C(c2cc(F)ccc2F)S1` (centres undefined), the IC50 was 41100 nM. For `CC(=O)NC1=NN(C(C)=O)C(C)(c2cccc3ccccc23)S1` (centres undefined), the half-maximal inhibitory concentration (IC50) was 1900 nM. On the same count and under the same terms, next, `CC(=O)NC1=NN(C(C)=O)[C@](C)(c2ccccc2)S1`: 580 nM; `CC(=O)NC1=NN(C(C)=O)C(C)(c2cnccn2)S1` (centres undefined): 46900 nM; `CC(=O)NC1=NN(C(C)=O)C(C)(c2ccsc2)S1` (centres undefined): 2200 nM.

`CC(=O)NC1=NN(C(C)=O)C(C)(C2CCCCC2)S1` (centres undefined) returned an IC50 of 7500 nM. The same measure, in the same setting: next, `CC(=O)NC1=NN(C(C)=O)C(c2cccc3ccccc23)S1` (centres undefined): 53900 nM; `CC(=O)NC1=NN(C(C)=O)C(C)(c2ccncc2)S1` (centres undefined): 59900 nM.

Another experiment concerns the target T1, Kinesin-like protein KIF11. In words: Binding affinity to N-terminal His6-tagged human Eg5 motor domain (1 to 368 residues) expressed in Escherichia coli BL21 (DE3) by isothermal titration calorimetry method. On the technique in general: ITC needs no label: the signal is the heat of the interaction.
As usually defined, the Kd is the constant that tells how readily two partners part at equilibrium. Higher therefore signals a looser complex. For `CC(=O)NC1=NN(C(C)=O)C(C)(c2ccccc2)S1` (centres undefined), binding was characterised by a dissociation constant (Kd) of 665 nM. Molecule `CC(=O)NC1=NN(C(C)=O)[C@](C)(c2ccccc2)S1` had a Kd of 220 nM.

A further experiment addresses T1, Kinesin-like protein KIF11. In words: Inhibition of microtubule-stimulated human Eg5 ATPase activity.
The molecule `CCNCCS(=O)(=O)NC[C@@]1(c2ccccc2)SC(NC(=O)C(C)(C)C)=NN1C(=O)C(C)(C)C` [LITRONESIB] gave a 50% inhibitory concentration (IC50) of 26 nM.

The next experiment has as its target T1, Kinesin-like protein KIF11. In words: Inhibition of N-terminal His6-tagged microtubule-stimulated ATPase activity of human Eg5 motor domain (1 to 368 residues) expressed in Escherichia coli BL21 (DE3) by pyruvate kinase-lactate dehydrogenase coupled assay.
Take `CC(=O)NC1=NN(C(C)=O)C(C)(c2ccccc2)S1` (centres undefined): the half-maximal inhibitory concentration (IC50) was determined as 740 nM. Same read-out and setting: next, `CC(=O)NC1=NN(C(C)=O)[C@](C)(c2ccccc2)S1`: 493 nM.

The values are drawn from ChEMBL document CHEMBL4270569, “Crystal structure of the Eg5 - K858 complex and implications for structure-based design of thiadiazole-containing inhibitors” (Eur J Med Chem, 2018).
